# Source: patent publication US10899738B2 (THE REGENTS OF THE UNIVERSITY OF MICHIGAN, priority 2016, dated 2021)
# Target: menin protein (Homo sapiens (Human), UniProt O00255)
# Experiment: biochemical
# Assay type: binding
# Settings: FP competitive binding; menin protein 4 nM, FAM-MM2 probe 2 nM
# In short: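 Competitive fluorescence polarization assay using FAM-labelled MLL1 peptide probe FAM-MM2 (2 nM final) preincubated with menin (4 nM final) in PBS with 0.02% bovine γ-globulin, 4% DMSO and 0.01% Triton X-100. Compounds were added and incubated 30 min at room temperature. IC50 came from nonlinear regression of competition curves, with Ki also derived.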
# menin protein, sequence (O00255 whole entry): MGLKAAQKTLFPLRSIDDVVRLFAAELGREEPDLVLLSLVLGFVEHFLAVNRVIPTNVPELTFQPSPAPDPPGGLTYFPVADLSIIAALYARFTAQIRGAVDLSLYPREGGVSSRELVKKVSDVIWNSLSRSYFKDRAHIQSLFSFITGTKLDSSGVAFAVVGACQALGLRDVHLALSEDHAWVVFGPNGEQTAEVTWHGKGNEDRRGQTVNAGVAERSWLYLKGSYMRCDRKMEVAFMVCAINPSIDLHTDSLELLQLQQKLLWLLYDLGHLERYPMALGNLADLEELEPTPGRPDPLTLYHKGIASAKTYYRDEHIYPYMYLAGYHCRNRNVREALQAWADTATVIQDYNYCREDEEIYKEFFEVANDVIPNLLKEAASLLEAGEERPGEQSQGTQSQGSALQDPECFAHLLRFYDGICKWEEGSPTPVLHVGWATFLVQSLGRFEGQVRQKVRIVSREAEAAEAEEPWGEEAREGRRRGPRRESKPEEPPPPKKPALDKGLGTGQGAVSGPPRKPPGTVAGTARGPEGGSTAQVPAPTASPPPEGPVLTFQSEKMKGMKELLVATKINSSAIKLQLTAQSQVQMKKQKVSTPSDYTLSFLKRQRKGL
row,Menin Binding Affinity IC50 (μM),Structure (SMILES)
1,No inhibition,"CCN1Cc2ccccc2C(C2CCCC2)(C2CCN(Cc3ccccc3Oc3ccc(C#N)cc3)CC2)C1 (stereo not shown) [compound 163, 4-(2-((4-(4-cyclopentyl-2-ethyl-1,2,3,4-tetrahydroisoquinolin-4-yl)piperidin-1-yl)methyl)phenoxy)benzonitrile]"

# Same assay, conditions: FP competitive binding; menin protein 4 nM, FAM-MM2 probe 2 nM; read-out: Menin Binding Affinity IC50
row,IC50 [µM],Structure (SMILES)
1,3.6,"CNC(=O)O[C@@H]1CCC[C@H]1C(C#N)(c1ccccc1)C1CCN(CC2(F)CN(c3ccc(S(=O)(=O)c4cnn(C)c4)cc3)C2)CC1 (mixture of isomers) [compound 370, rac-(1R,2S)-2-(cyano(1-((3-fluoro-1-(4-((1-methyl-1H-pyrazol-4-yl)sulfonyl)phenyl)azetidin-3-yl)methyl)piperidin-4-yl)(phenyl)methyl)cyclopentyl methylcarbamate]"
2,4.6,"CNC(=O)O[C@@H]1CCC[C@H]1C(C#N)(c1ccccc1)C1CCN(CC2CN(c3ccc([N+](=O)[O-])cc3)C2)CC1 (mixture of isomers) [compound 384, rac-(1R,2S)-2-(cyano(1-((1-(4-nitrophenyl)azetidin-3-yl)methyl)piperidin-4-yl)(phenyl)methyl)cyclopentyl methylcarbamate]"
3,5.1,"COC(=O)N[C@@H]1CCC[C@H]1C(C#N)(c1ccccc1)C1CCN(CC2CN(c3ccc(S(=O)(=O)C4CC4)cc3)C2)CC1 (mixture of isomers) [compound 320, rac-methyl ((1R,2S)-2-(cyano(1-((1-(4-(cyclopropylsulfonyl)phenyl)azetidin-3-yl)methyl)piperidin-4-yl)(phenyl)methyl)cyclopentyl)carbamate]"
4,14.4,"CS(=O)(=O)CO[C@H]1CCC[C@@H]1C(C#N)(c1ccccc1)C1CCN(CC2CN(c3ccc(S(=O)(=O)c4ccncc4)cc3)C2)CC1 (mixture of isomers) [compound 253, rac-2-((1R,2S)-2-((methylsulfonyl)methoxy)cyclopentyl)-2-phenyl-2-(1-((1-(4-(pyridin-4-ylsulfonyl)phenyl)azetidin-3-yl)methyl)piperidin-4-yl)acetonitrile]"
5,5.1,"COC(=O)[C@@H]1CCC[C@H]1C(C#N)(c1ccccc1)C1CCN(CC2CN(c3ccc(S(=O)(=O)C4CC4)cc3)C2)CC1 (mixture of isomers) [compound 333, methyl rac-(1R,2R)-2-(cyano(1-((1-(4-(cyclopropylsulfonyl)phenyl)azetidin-3-yl)(phenyl)methyl)cyclopentane-1-carboxylate]"
6,0.161,"CC(=O)O[C@@H]1CCC[C@H]1C1(C2CCN(CC3CN(c4ccc(S(=O)(=O)C5CC5)cc4)C3)CC2)CN(C)Cc2ccc(F)cc21 (mixture of isomers) [compound 317, rac-(1R,2S)-2-(4-(1-((1-(4-(cyclopropylsulfonyl)phenyl)azetidin-3-yl)methyl)piperidin-4-yl)-6-fluoro-2-methyl-1,2,3,4-tetrahydroisoquinolin-4-yl)cyclopentyl acetate]"
7,2.4,"COC(=O)N[C@H]1CCC[C@@H]1C(C#N)(c1ccccc1)C1CCN(CC2CN(c3ccccc3)C2)CC1 (mixture of isomers) [compound 402, methyl rac-((1S,2R)-2-(cyano(phenyl)(1-((1-phenylazetidin-3-yl)methyl)piperidin-4-yl)methyl)cyclopentyl) carbamate]"

row,Structure (SMILES),IC50 [µM]
1,"CC(C)C(=O)N1CCCCC1C1(C2CCN(CCCOc3ccc(C#N)cc3)CC2)CN(C)Cc2ccccc21 (stereo not shown) [compound 299, 4-(3-(4-(4-(1-isobutyrylpiperidin-2-yl)-2-methyl-1,2,3,4-tetrahydroisoquinolin-4-yl)piperidin-1-yl)propoxy)benzonitrile]",16.8
2,"CS(=O)(=O)c1ccc(N2CC(CN3CCC(C(C#N)(c4ccccc4)C4CCC(=O)C4)CC3)C2)cc1 (stereo not shown) [compound 169, 2-(1-((1-(4-(methylsulfonyl)phenyl)azetidin-3-yl)methyl)piperidin-4-yl)-2-(3-oxocyclopentyl)-2-phenylacetonitrile]",49.9
